Laboratory results published in the supplement of paper PMC5579334.
± gives the standard deviation of the averaged measurements.

How the values were obtained:
[1] = tested on: HS-PSS; assay: drug sensitivity score (DSS, CellTiter-Glo viability, 72 h) (DSS (dimensionless)); higher = more sensitive; extreme values may be limits of the assay
Procedure, shortened: (§1)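 MPNST cell lines and primary human Schwann cells (750–1000 cells per well) went into 384-well plates preprinted with each compound at five concentrations in 10-fold steps. Plates were incubated 72 h at 37 °C, 5% CO2. Viability was read as CellTiter-Glo ATP luminescence, scaled between vehicle and positive-control wells, with duplicates averaged where present. Percent inhibition is at the top concentration; drug sensitivity score and relative IC50 (censored at top concentration) come from four-parameter logistic fits.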

[2] = tested on: HS-Sch-2; assay: as above
Procedure, shortened: as §1

[3] = tested on: HSC1 (primary human Schwann cells); assay: as above
Procedure, shortened: as §1

[4] = tested on: HSC2 (primary human Schwann cells); assay: as above
Procedure, shortened: as §1

[5] = tested on: S1507-2; assay: as above
Procedure, shortened: as §1

[6] = tested on: S462; assay: as above
Procedure, shortened: as §1

[7] = tested on: ST8814; assay: as above
Procedure, shortened: as §1

[8] = tested on: STS26T; assay: as above
Procedure, shortened: as §1

[9] = tested on: YST-1; assay: as above
Procedure, shortened: as §1

[10] = tested on: HS-PSS; assay: drug sensitivity score (DSS, CellTox-Green cytotoxicity, 72 h) (DSS (dimensionless)); higher = more cytotoxic; extreme values may be limits of the assay
Procedure, shortened: (§2)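 MPNST cell lines and primary human Schwann cells were incubated 72 h at 37 °C in 384-well plates holding five 10-fold compound dilutions. CellTox-Green was added before seeding at a final 1:1000 dilution and reported fluorescence from DNA released by disrupted cells. Signals were scaled to vehicle and positive-control wells, and cultures failing plate quality control were dropped. Drug sensitivity score and relative IC50 come from four-parameter logistic fits, with IC50 censored at the top concentration.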

[11] = tested on: HSC1 (primary human Schwann cells); assay: as above
Procedure, shortened: as §2

[12] = tested on: HSC2 (primary human Schwann cells); assay: as above
Procedure, shortened: as §2

[13] = tested on: S1507-2; assay: as above
Procedure, shortened: as §2

[14] = tested on: ST8814; assay: as above
Procedure, shortened: as §2

[15] = tested on: STS26T; assay: as above
Procedure, shortened: as §2

[16] = tested on: HS-PSS; assay: % inhibition of CellTiter-Glo viability at highest tested concentration (72 h), relative to DMSO and benzethonium chloride controls; higher = more inhibition
Procedure, shortened: as §1

[17] = tested on: HS-Sch-2; assay: as above
Procedure, shortened: as §1

[18] = tested on: HSC1 (primary human Schwann cells); assay: as above
Procedure, shortened: as §1

[19] = tested on: HSC2 (primary human Schwann cells); assay: as above
Procedure, shortened: as §1

[20] = tested on: S1507-2; assay: as above
Procedure, shortened: as §1

[21] = tested on: S462; assay: as above
Procedure, shortened: as §1

[22] = tested on: ST8814; assay: as above
Procedure, shortened: as §1

[23] = tested on: STS26T; assay: as above
Procedure, shortened: as §1

[24] = tested on: YST-1; assay: as above
Procedure, shortened: as §1

SMILES | drug sensitivity score [1] | drug sensitivity score [2] | drug sensitivity score [3] | drug sensitivity score [4] | drug sensitivity score [5] | drug sensitivity score [6] | drug sensitivity score [7] | drug sensitivity score [8] | drug sensitivity score [9] | drug sensitivity score [10] | drug sensitivity score [11] | drug sensitivity score [12] | drug sensitivity score [13] | drug sensitivity score [14] | drug sensitivity score [15] | % inhibition [16] [%] | % inhibition [17] [%] | % inhibition [18] [%] | % inhibition [19] [%] | % inhibition [20] [%] | % inhibition [21] [%] | % inhibition [22] [%] | % inhibition [23] [%] | % inhibition [24] [%]
C=CCNC1=C2C[C@@H](C)C[C@H](OC)[C@H](O)[C@@H](C)/C=C(\C)[C@H](OC(N)=O)[C@@H](OC)/C=C\C=C(/C)C(=O)NC(=CC1=O)C2=O [Tanespimycin] (max concentration tested 10000 nM) | 19 | 22.4 | 15.9 | 16.7 | 20.8 ± 0.74 | 17.9 ± 1.3 | 21 | 22.2 | 22.6 | 5.08 | 17.9 | 19.1 | 14.6 ± 1.2 | 7.63 | 14 | 89.1 | 100 | 96.8 | 98.2 | 98 ± 0.1 | 99.25 ± 0.39 | 96.5 | 96.1 | 75.3
COc1cc2c(cc1O)CC[C@@H]1[C@@H]2CC[C@]2(C)[C@@H](O)CC[C@@H]12 [2-methoxyestradiol] (max concentration tested 10000 nM) | 1.11 | 10.8 | 7.26 | 7.04 | 6.89 ± 0.4 | 12.8 ± 0.78 | 6.11 | 12.1 | 6.88 | 0 | 0.832 | 3.98 | 5.59 ± 1 | 5.07 | 11.6 | 26.6 | 84.4 | 66.2 | 66.6 | 82 ± 3.8 | 98.15 ± 0.87 | 91.9 | 99.8 | 75.8
CO[C@@H](C(=O)N1Cc2[nH]nc(NC(=O)c3ccc(N4CCN(C)CC4)cc3)c2C1)c1ccccc1 [Danusertib] (max concentration tested 10000 nM) | 8.49 | 11.1 | 11.4 | 10.4 | 8.76 ± 2 | 13.9 ± 0.31 | 8.83 | 5.54 | 12.9 | 2.75 | 6.43 | 7.05 | 1.16 ± 0.24 | 6.94 | 3.88 | 80.7 | 76.3 | 88.1 | 90.9 | 66.7 ± 10 | 88.7 ± 1.7 | 85.7 | 52.5 | 46.4
CO[C@H]1C[C@@H]2CC[C@@H](C)[C@@](O)(O2)C(=O)C(=O)N2CCCC[C@H]2C(=O)O[C@H]([C@H](C)C[C@@H]2CC[C@@H](O)[C@H](OC)C2)CC(=O)[C@H](C)/C=C(\C)[C@@H](O)[C@@H](OC)C(=O)[C@H](C)C[C@H](C)/C=C/C=C/C=C/1C [Sirolimus] (max concentration tested 100 nM) | 4.11 | 3.47 | 0.673 | 1.62 | 0.128 ± 0.18 | 0 | 0.411 | 1.7 | 6.14 | 0 | 0 | 0 | 0.0997 ± 0.14 | 0 | 0 | 32.9 | 29.1 | 24.6 | 23.2 | 5.52 ± 9 | 1.96 ± 4.9 | 14.7 | 27.9 | 45.1
CO[C@H]1[C@@H](N(C)C(=O)c2ccccc2)C[C@@H]2O[C@@]1(C)n1c3ccccc3c3c4c(c5c6ccccc6n2c5c31)C(=O)NC4 [Midostaurin] (max concentration tested 10000 nM) | 9.08 | 12.2 | 21.6 | 20.7 | 16.5 ± 1.1 | 10.7 ± 0.49 | 13.9 | 11.5 | 11.4 | 0 | 11.9 | 19.4 | 6.96 ± 1.9 | 11.1 | 13.4 | 56.4 | 73.6 | 93.2 | 95.5 | 90.3 ± 1 | 71.9 ± 4.6 | 85.2 | 71.8 | 52.8
C=CC(=O)N1CCC[C@@H](n2nc(-c3ccc(Oc4ccccc4)cc3)c3c(N)ncnc32)C1 [Ibrutinib] (max concentration tested 1000 nM) | 1.17 | 0 | 0 | 0 | 0 | 0 | 0 | 0 | 0 | 0 | 0 | 0 | 0 | 0 | 0 | 7.7 | 0.01 | -4.13 | -1.15 | -8.72 ± 4.8 | -0.0582 ± 2.1 | 2.81 | 2.46 | -1.93
Cn1c(=O)n(-c2ccc(C(C)(C)C#N)cc2)c2c3cc(-c4cnc5ccccc5c4)ccc3ncc21 [Dactolisib] (max concentration tested 1000 nM) | 14.4 | 13.9 | 19.4 | 19.4 | 15.8 ± 2.9 | 13.2 ± 0.72 | 14.3 | 17.2 | 14.7 | 0.12 | 0 | 0 | 0 | 0 | 0 | 69.8 | 61.8 | 75 | 78.3 | 66 ± 2.8 | 61 ± 0.72 | 64 | 67.7 | 63.8
Cn1cc(CNCC2CCN(c3ncc(C(=O)NO)cn3)CC2)c2ccccc21 [Quisinostat] (max concentration tested 1000 nM) | 14.7 | 15.7 | 16 | 13.9 | 20.8 ± 1.1 | 20.6 ± 0.34 | 21 | 15.6 | 24.2 | 6.33 | 7.77 | 7.35 | 17.2 ± 0.8 | 13.8 | 9 | 93.3 | 98.6 | 95.9 | 95.7 | 102.2 ± 0.95 | 103.4 ± 0.44 | 102 | 99.4 | 99
Nc1ccn([C@@H]2O[C@H](CO)[C@@H](O)C2(F)F)c(=O)n1 [Gemcitabine] (max concentration tested 1000 nM) | 14.7 | 25.2 | 26.5 | 27.7 | 31.7 ± 4.1 | 40.2 ± 1 | 27.7 | 28.3 | 19.7 | 7.61 | 23.3 | 18.5 | 14.3 ± 2 | 21 | 19.3 | 70.2 | 75 | 85 | 84.5 | 86.1 ± 3.8 | 99.9 ± 2.2 | 96.5 | 83.8 | 76.7
O=C1CN2Cc3c(ccc(Cl)c3Cl)N=C2N1 [Anagrelide] (max concentration tested 10000 nM) | 0 | 8.23 | 1.41 | 11.1 | 0 | 0 | 0.934 | 0 | 0 | 0 | 0 | 0.367 | 0 | 0 | 0 | 4.14 | 38.7 | 17.3 | 51.1 | -1.32 ± 1.6 | -5.96 ± 0.63 | 17.3 | 1.1 | 2.83
COc1ccc(-c2ccc3c(N4CCOC[C@@H]4C)nc(N4CCOC[C@@H]4C)nc3n2)cc1CO [AZD8055] (max concentration tested 10000 nM) | 17 | 17.9 | 26.2 | 27.2 | 22.5 ± 1.3 | 22.3 ± 1.8 | 18 | 21 | 25.1 | 0.77 | 0 | 0 | 0 | 0.371 | 0 | 70.7 | 75.8 | 89.3 | 89.9 | 85.4 ± 0.61 | 74.8 ± 1.4 | 84.1 | 82 | 78.6
O=C(/C=C/c1cccc(S(=O)(=O)Nc2ccccc2)c1)NO [Belinostat] (max concentration tested 10000 nM) | 10.8 | 13.7 | 15.4 | 13.2 | 16.6 ± 0.76 | 12.7 ± 0.28 | 17.2 | 13 | 18.1 | 4.69 | 8.65 | 8.85 | 12.2 ± 2 | 12.4 | 12.7 | 88.1 | 101 | 102 | 101 | 104 ± 1.3 | 102.5 ± 0.29 | 102 | 98.9 | 101
